In patent US11634447B2 (priority 2012, dated 2023):

How the values were obtained:
[1] = molecular target: T1, FimH-CRD (Escherichia coli, UniProt P08191); experiment: Competitive binding assay by fluorescence polarization, assay 2 (compounds prepared by a robotics system, plates frozen and thawed); parameters: species or system E. coli
T1 construct: The first 177 amino acids of the FimH protein are expressed as a fusion protein; thrombin tag (printed as 'fusion protein with thrombin') (cleaved yes); made in house; host or cells: bacteria (pET21b plasmid)
T1 sequence (P08191 22-177): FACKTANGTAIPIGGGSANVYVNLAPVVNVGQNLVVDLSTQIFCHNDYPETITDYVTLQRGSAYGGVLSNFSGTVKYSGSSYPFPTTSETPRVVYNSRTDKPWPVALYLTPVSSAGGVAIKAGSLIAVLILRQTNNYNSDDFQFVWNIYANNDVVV
Procedure, shortened: (§1)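 FimH-CRD (residues 1-177, tag removed) at 60 nM competed against 5 nM Alexa 647 mannoside probe in 50 mM Tris-Cl pH 7.0, 100 mM NaCl, 1 mM EDTA, 5 mM β-mercaptoethanol, 0.05% BSA, 2.5% DMSO; 5 h, room temperature, dark. Compounds 0.4 nM-75 μM final, 12-point 3-fold, duplicate; Kd from fluorescence polarization displacement curves. Assay 1: manual dilution; assay 2: robotic dilution, plates frozen/thawed.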

[2] = molecular target: T1, FimH-CRD; experiment: Competitive binding assay by fluorescence polarization, assay 1 (compounds prepared by manual dilution); parameters: species or system E. coli
Procedure, shortened: as §1

Measured: Kd

OC[C@H]1O[C@H](Cc2ccc(-c3ccc(C[C@H]4O[C@H](CO)[C@@H](O)[C@H](O)[C@@H]4O)cc3)cc2)[C@@H](O)[C@@H](O)[C@@H]1O [Compound 41, ((2R,3S,4R,5S,6R)-2-(Hydroxymethyl)-6-[[4-[4-[[(2R,3S,4R,5S,6R)-3,4,5-trihydroxy-6-(hydroxymethyl)tetrahydropyran-2-yl]methyl]phenyl]phenyl]methyl]tetrahydropyran-3,4,5-triol)]
< 5 nM: [1]; Assay 2 Kd, 5 nM Alexa 647 mannoside probe, 60 nM FimH-CRD, replicate values in one cell | [1]; read-out: Assay 2 Kd, 5 nM Alexa 647 mannoside probe, 60 nM FimH-CRD, replicate values in one cell | [2]; Assay 1 Kd, 5 nM Alexa 647 mannoside probe, 60 nM FimH-CRD, replicate values in one cell | [2]; read-out: Assay 1 Kd, 5 nM Alexa 647 mannoside probe, 60 nM FimH-CRD, replicate values in one cell
